Holding throughout (assay): ≥ marks a high value that may be exact or a test limit, other limits are often not marked, values filed in µg/mL are converted to µM
Assay [1] relates to Candida albicans NCYC 1467.
Assay [2] relates to Escherichia coli NCTC 10418.
Assay [3] has as its system Staphylococcus aureus NCTC 10788.
The test system of assay [4] is Pseudomonas aeruginosa ATCC 27853.
Assay [5] relates to Enterococcus faecalis NCTC 12697.
Assay [6] relates to Staphylococcus aureus NCTC 12493.
Assay [7] concerns Staphylococcus aureus ATCC 33591.
The test system of assay [8] is Staphylococcus epidermidis ATCC 51625.
For assay [9], the system named is Klebsiella aerogenes ATCC 13048.
For assay [10], the system named is Streptococcus pneumoniae ATCC 49619.
The subject of assay [11] is Enterococcus faecium ATCC 700221.
For assay [12], the system named is Pseudomonas aeruginosa ATCC 19660.
For assay [13], the system named is Acinetobacter baumannii ATCC 17978D-5.
For assay [14], the system named is Salmonella enterica subsp. enterica serovar Bovismorbificans CICC 21499.
The test system of assay [15] is Salmonella enterica subsp. enterica serovar Agona CICC 21586.
The test system of assay [16] is Salmonella enterica subsp. enterica serovar Jerusalem CICC 21651.
In assay [17] the test system is Salmonella enterica subsp. enterica serovar Eastbourne CICC 21508.
The subject of assay [18] is Staphylococcus epidermidis ATCC 12228.
The test system of assay [19] is Salmonella enterica subsp. enterica serovar Blockley CICC 21489.
For assay [20], the system named is Salmonella enterica subsp. arizonae CICC 21506.
Assay [21] relates to Salmonella enterica subsp. enterica serovar Aberdeen CICC 21492.
Assay [22] concerns Salmonella typhimurium CMCC 50115.
Assay [23] relates to Salmonella enterica subsp. enterica serovar Typhimurium CICC 21483.
Assay [24] concerns Salmonella enterica subsp. enterica serovar Dakar CICC 21507.
Assay [25] has as its system Staphylococcus aureus ATCC 29213.
The subject of assay [26] is Salmonella enterica subsp. enterica serovar Senftenberg CICC 21502.
The subject of assay [27] is Salmonella enterica subsp. enterica serovar Kentucky CICC 21488.
Assay [28] has as its system Salmonella enterica subsp. enterica serovar Montevideo CICC 21588.
The test system of assay [29] is Salmonella enterica subsp. enterica serovar Meleagridis CICC 21511.
Assay [30] has as its system Salmonella enterica subsp. enterica serovar Anatum CICC 21498.
Assay [31] has as its system Salmonella enterica subsp. enterica serovar Heidelberg CICC 21487.
Assay [32] concerns Salmonella enterica subsp. enterica serovar Dublin CICC 21497.
Assay [33] deals with Escherichia coli O157:H7.
The subject of assay [34] is Salmonella enterica subsp. enterica serovar Adelaide CICC 21505.
For assay [35], the system named is Salmonella enterica subsp. enterica serovar Enteritidis CMCC 50041.
In assay [36] the test system is Salmonella enterica subsp. enterica serovar Saintpaul CICC 21486.
Assay [37] deals with Salmonella enterica subsp. enterica serovar Thompson CICC 21480.
Assay [38] has as its system Enterococcus faecalis ATCC 29212.
Assay [39] relates to Salmonella enterica subsp. enterica serovar Braenderup ATCC H9812.
The subject of assay [40] is Salmonella enterica subsp. enterica serovar Miami CICC 21509.
In assay [41] the test system is Staphylococcus aureus ATCC 43300.
The test system of assay [42] is Salmonella enterica subsp. enterica serovar Potsdam CICC 21500.
The subject of assay [43] is Salmonella enterica subsp. enterica serovar Wandsworth CICC 21504.
Assay [44] has as its system Candida albicans ATCC 10231.
The test system of assay [45] is Salmonella enterica subsp. enterica serovar Bonn CICC 21677.
Assay [46] has as its system Streptococcus mutans ATCC UA159.

In brackets after ≈: the same amount, converted by molar mass.

Broadly, the MIC is the lowest concentration that inhibits growth of the organism. Turning to `CSCC[C@H](NC(=O)[C@H](CC(=O)O)NC(=O)[C@@H](NC(=O)[C@@H](NC(=O)[C@H](C)NC(=O)[C@H](CC(N)=O)NC(=O)[C@H](CC(C)C)NC(=O)[C@H](C)NC(=O)[C@H](C)NC(=O)[C@H](CCCCN)NC(=O)CNC(=O)[C@H](C)NC(=O)[C@H](C)NC(=O)[C@H](CCCCN)NC(=O)CNC(=O)[C@@H](NC(=O)[C@H](Cc1cnc[nH]1)NC(=O)[C@H](CCCCN)NC(=O)[C@H](CC(C)C)NC(=O)[C@H](CC(C)C)NC(=O)[C@@H](NC(=O)[C@H](CCCCN)NC(=O)[C@H](Cc1c[nH]c2ccccc12)NC(=O)[C@H](CC(C)C)NC(=O)[C@H](C)N)[C@@H](C)O)C(C)C)C(C)C)[C@@H](C)O)C(=O)N[C@H](C(=O)N[C@@H](CC(N)=O)C(=O)N[C@@H](CCC(N)=O)C(N)=O)C(C)C` [ALWKTLLKHVGKAAGKAALNAVTDMVNQ], the minimum inhibitory concentration (MIC) in [1] was 4 µM (≈ 11.8 µg/mL); in assay [2], 8 µM (≈ 23.6 µg/mL); in assay [3] it was 4 µM (≈ 11.8 µg/mL); in assay [4], 16 µM (≈ 47.2 µg/mL); in assay [5] it was ≥ 32 µM; in assay [6], 8 µM (≈ 23.6 µg/mL).
As to `C[C@H](NC(=O)[C@H](Cc1ccccc1)NC(=O)CNC(=O)[C@@H]1CCCN1C(=O)[C@@H](N)CS)C(=O)N[C@@H](CCCCN)C(=O)N[C@@H](CCCCN)C(=O)N[C@@H](Cc1ccccc1)C(=O)N[C@@H](C)C(=O)N[C@@H](CCCCN)C(=O)N[C@@H](CCCCN)C(=O)N[C@@H](Cc1ccccc1)C(=O)N[C@@H](CCCCN)C(=O)N[C@@H](CCCCN)C(=O)N[C@@H](Cc1ccccc1)C(=O)N[C@@H](C)C(=O)N[C@@H](CCCCN)C(=O)N[C@@H](CCCCN)C(=O)N[C@@H](Cc1ccccc1)C(=O)N[C@@H](C)C(=O)N[C@@H](CCCCN)C(=O)N[C@@H](Cc1ccccc1)C(=O)N[C@@H](C)C(=O)N[C@@H](Cc1ccccc1)C(=O)N[C@@H](C)C(=O)N[C@@H](Cc1ccccc1)C(=O)O` [CPGFAKKFAKKFKKFAKKFAKFAFAF], the MIC was 10.6 µM (≈ 32 µg/mL) in assay [7]; 5.28 µM (≈ 16 µg/mL) in [8]; 10.6 µM (≈ 32 µg/mL) in assay [9]; 10.6 µM (≈ 32 µg/mL) in assay [10]; 10.6 µM (≈ 32 µg/mL) in [4]; 5.28 µM (≈ 16 µg/mL) in assay [11]. The MIC in assay [12] came out at 10.6 µM (≈ 32 µg/mL); in assay [13], 5.28 µM (≈ 16 µg/mL).
In the case of `C[C@@H](O)[C@@H]1NC(=O)[C@@H](NC(=O)[C@H](CCCCN)NC(=O)[C@H](Cc2c[nH]c3ccccc23)NC(=O)[C@H](CCCCN)NC(=O)[C@@H](N)Cc2c[nH]c3ccccc23)CSSC[C@@H](C(=O)N[C@@H](CCCCN)C(=O)N[C@@H](Cc2c[nH]c3ccccc23)C(=O)N[C@@H](CCCCN)C(=O)N[C@@H](Cc2c[nH]c3ccccc23)C(N)=O)NC(=O)CNC(=O)[C@H](CO)NC(=O)[C@H](CCCCN)NC1=O` [WKWKCTKSGCKWKW], the MIC was found to be 2.16 µM (≈ 3.99 µg/mL) in assay [14]; 2.16 µM (≈ 3.99 µg/mL) in [15]; 4.31 µM (≈ 7.99 µg/mL) in assay [16]; 2.16 µM (≈ 3.99 µg/mL) in assay [17]; 2.16 µM (≈ 3.99 µg/mL) in assay [18]; 4.31 µM (≈ 7.99 µg/mL) in assay [19]. Also, the minimal inhibitory concentration (MIC) in [20], in assay [21], in assay [22], in [23], in assay [24] and in [25] was 2.16 µM (≈ 3.99 µg/mL) each time. In addition, the MIC in assay [26] amounted to 2.16 µM (≈ 3.99 µg/mL); in assay [27], 2.16 µM (≈ 3.99 µg/mL); in [28], 2.16 µM (≈ 3.99 µg/mL); in assay [29], 2.16 µM (≈ 3.99 µg/mL); in [30], 2.16 µM (≈ 3.99 µg/mL); in [31], 1.08 µM (≈ 2 µg/mL). Also, the minimum inhibitory concentration (MIC) in assay [32] turned out to be 2.16 µM (≈ 3.99 µg/mL); in assay [33], 2.16 µM (≈ 3.99 µg/mL); in [34], 2.16 µM (≈ 3.99 µg/mL); in assay [35], 4.31 µM (≈ 7.99 µg/mL); in assay [36], 1.08 µM (≈ 2 µg/mL); in assay [37] it was 2.16 µM (≈ 3.99 µg/mL). Also, the MIC worked out at 1.08 µM (≈ 2 µg/mL) in assay [38]; 2.16 µM (≈ 3.99 µg/mL) in [39]; 4.31 µM (≈ 7.99 µg/mL) in assay [40]; 4.31 µM (≈ 7.99 µg/mL) in assay [41]; 1.08 µM (≈ 2 µg/mL) in assay [42]; 2.16 µM (≈ 3.99 µg/mL) in [43]. Besides, the minimal inhibitory concentration (MIC) in assay [44] and in [45] was 1.08 µM (≈ 2 µg/mL) in each case.
Turning to `CC[C@H](C)[C@H](NC(=O)[C@H](CCCCN)NC(=O)[C@H](CCCN=C(N)N)NC(=O)[C@@H](NC(=O)[C@@H](N)Cc1ccc(O)cc1)[C@@H](C)CC)C(=O)N[C@@H](CCCN=C(N)N)C(=O)N[C@@H](CCCN=C(N)N)C(=O)N[C@@H](Cc1ccccc1)C(=O)N[C@@H](Cc1ccccc1)C(=O)N[C@@H](CCCCN)C(=O)N[C@H](C(=O)N[C@@H](CC(C)C)C(=O)N[C@@H](CC(N)=O)C(=O)N[C@@H](CCCCN)C(=O)N[C@@H](CC(N)=O)C(=O)N[C@@H](CC(C)C)C(=O)N[C@@H](CCCCN)C(=O)N[C@@H](CCCCN)C(N)=O)[C@@H](C)O` [YIRKIRRFFKTLNKNLKK], the minimum inhibitory concentration (MIC) in [46] came out at 13.5 µM (≈ 32 µg/mL).

The values are drawn from DBAASP.
